Results published in patent publication US12173330B2, “Method for producing hydroxy-L-pipecolic acid” (API CORPORATION, priority 2015, dated 2024).
Like-named read-outs stand apart in the source and are kept apart here.

What was measured:
[1] = molecular target: Gibberella zeae PH-1 L-pipecolic acid trans-4-hydroxylase GzPH, SEQ ID NO: 16 (Fusarium graminearum, UniProt I1RHG1)
[2] = molecular target: Segniliparus rugosus ATCC BAA-974 L-pipecolic acid cis-5-hydroxylase SruPH, SEQ ID NO: 4 (Segniliparus rugosus, UniProt E5XT07); conditions: for Vmax: 20 mmol/L 2-oxoglutaric acid, 30° C.; for kcat: calculated from Vmax and molecular weight
[3] = test system: Kordia jejudonensis amino acid hydroxylase KjPH, SEQ ID NO: 18; type: biochemical; conditions: for Km / Vmax: 20 mmol/L 2-oxoglutaric acid, 30° C.; for kcat: calculated from Vmax and molecular weight
[4] = molecular target: T1, Xenorhabdus doucetiae FRM16 L-proline cis-4-hydroxylase XdPH, SEQ ID NO: 8 (Xenorhabdus doucetiae, UniProt A0A068QPC1); type: biochemical; conditions: for kcat: calculated from Vmax and molecular weight
T1 sequence (A0A068QPC1 1-294): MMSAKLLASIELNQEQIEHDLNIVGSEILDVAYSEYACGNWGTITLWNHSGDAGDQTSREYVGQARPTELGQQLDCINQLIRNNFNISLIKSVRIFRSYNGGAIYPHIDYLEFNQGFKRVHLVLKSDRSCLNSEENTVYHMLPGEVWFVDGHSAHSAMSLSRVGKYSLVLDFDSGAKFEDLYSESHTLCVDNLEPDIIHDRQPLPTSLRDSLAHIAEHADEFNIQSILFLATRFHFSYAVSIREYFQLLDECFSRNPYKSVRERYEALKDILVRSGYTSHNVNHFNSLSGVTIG

[5] = molecular target: Sinorhizobium meliloti 1021 L-proline cis-4-hydroxylase SmPH, SEQ ID NO: 10 (Sinorhizobium meliloti, UniProt Q92LF6); type: biochemical; conditions: for kcat: calculated from Vmax and molecular weight
[6] = test system: Micromonospora chokoriensis amino acid hydroxylase McPH (L-pipecolic acid 5-hydroxylase), wild type, SEQ ID NO: 2; type: biochemical
[7] = molecular target: Colletotrichum gloeosporioides Nara qc5 L-pipecolic acid trans-4-hydroxylase CgPH, SEQ ID NO: 12 (Colletotrichum fructicola, UniProt L2G7W2)
[8] = molecular target: T2, Catenulispora acidiphila NBRC102108 L-proline cis-4-hydroxylase CaPH, SEQ ID NO: 6 (Catenulispora acidiphila, UniProt C7Q927); type: biochemical; conditions: substrate: L-proline; calculated from Vmax and molecular weight
T2 sequence (C7Q927 1-290): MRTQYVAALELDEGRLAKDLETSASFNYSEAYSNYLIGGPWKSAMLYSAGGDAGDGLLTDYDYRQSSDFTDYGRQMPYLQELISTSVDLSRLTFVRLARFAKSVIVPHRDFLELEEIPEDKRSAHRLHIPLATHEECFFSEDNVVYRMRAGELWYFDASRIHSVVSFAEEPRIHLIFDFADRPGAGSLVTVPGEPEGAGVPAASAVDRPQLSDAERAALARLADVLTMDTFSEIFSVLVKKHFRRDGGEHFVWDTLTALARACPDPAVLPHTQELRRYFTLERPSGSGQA

[9] = substrate: L-pipecolic acid, 20 mmol/L 2-oxoglutaric acid, 30° C.
[10] = substrate: L-pipecolic acid, calculated from Vmax and molecular weight
[11] = substrate: L-proline, 20 mmol/L 2-oxoglutaric acid, 30° C.

## O=C(O)[C@@H]1CCCCN1 [L-pipecolic acid]
[1]; [9]
  Vmax: 114.94 U/mg-protein
[1]; [10]
  kcat: 72.48
[2]; substrate: L-pipecolic acid
  Vmax: 0.05 U/mg-protein
  kcat: 0.03
[3]; substrate: L-pipecolic acid
  Km: 490 µM
  Vmax: 0.30 U/mg-protein
  kcat: 0.16
[4]; substrate: L-pipecolic acid
  kcat: 0.64
[5]; substrate: L-pipecolic acid
  kcat: 0.02
[6]; [9]
  Km: 240 µM
  Vmax: 0.06 U/mg-protein
[6]; [10]
  kcat: 0.03
[7]; [9]
  Vmax: 70.42 U/mg-protein
[7]; [10]
  kcat: 43.80

## O=C(O)[C@@H]1CCCN1 [L-proline]
[1]; kcat/Km ratio
  catalytic reaction efficiency for L-proline relative to that for L-pipecolic acid: 0
[2]; kcat/Km ratio
  catalytic reaction efficiency for L-proline relative to that for L-pipecolic acid: 754%
[2]; substrate: L-proline
  Vmax: 0.13 U/mg-protein
  kcat: 0.07
[3]; kcat/Km ratio
  catalytic reaction efficiency for L-proline relative to that for L-pipecolic acid: 115%
[3]; substrate: L-proline
  Km: 480 µM
  Vmax: 0.34 U/mg-protein
  kcat: 0.18
[8]
  kcat: 0.01
[4]; kcat/Km ratio
  catalytic reaction efficiency for L-proline relative to that for L-pipecolic acid: 119%
[4]; [11]
  Vmax: 1.44 U/mg-protein
[4]; substrate: L-proline
  kcat: 0.80
[5]; kcat/Km ratio
  catalytic reaction efficiency for L-proline relative to that for L-pipecolic acid: 114%
[5]; [11]
  Vmax: 0.06 U/mg-protein
[5]; substrate: L-proline
  kcat: 0.03
[6]; kcat/Km ratio
  catalytic reaction efficiency for L-proline relative to that for L-pipecolic acid: 0
[7]; kcat/Km ratio
  catalytic reaction efficiency for L-proline relative to that for L-pipecolic acid: 0
